This note sets out measurements from patent US20160007597A1, “TREATING AGENT FOR PLANT CELL WALLS, SUBSTANCE DELIVERY METHOD USING TREATING AGENT, AND SUBSTANCE DELIVERY SYSTEM” (SUNTORY HOLDINGS LIMITED, priority 2013, published 2016).

In one series the test system is onion epidermal cells. Put plainly: Cell wall permeability: intracellular uptake of GFP or GFP-FT in onion bulb epidermal cells after trypsin treatment (fluorescence microscopy). The conditions noted are these: 0.1 mg GFP, 20 μM R9 peptide. The format is cell-based. As to the method: Various test solutions containing a fluorescent protein, GFP or GFP-FT, and the R9 peptide were prepared and applied to onion bulbs for verification of GFP uptake. The ingredients of the test solutions verified are shown below:
salt (NaCl), acidic buffer (citric acid), organic solvent (toluene, ethanol), cell wall lyase (pectolyase), surfactant (saponin, Silwet L-77, Tween 20, Triton X-100, CHAPS, CTAB, SDS), chelator (EGTA, EDTA, CDTA, BAPTA), DMSO, and glycerol.
Onion bulbs were cut into boat-shaped pieces, and test solutions (100 μl each) prepared at various concentration conditions (0.1× PBS, 1 to 100 mM chelator, 0.005% to 0.05% surfactant, 0.1 mg GFP, 20 μM R9 peptide) were applied to their surface. Each sample was allowed to stand in a dish at room temperature for 12 hours while being kept under humid conditions. Then, the test solutions were removed and the samples were washed with distilled water. After a 0.25% trypsin solution was applied in 100 μl volumes, the samples were allowed to stand for 30 minutes. After removal of the trypsin solution, the samples were washed with distilled water and their epidermal cell layers were peeled to prepare specimens, which were then observed for intracellular uptake of GFP under a fluorescence microscope (Leica, DM6000B).

Another series relates to leaves. As to the method: To verify the migration of the FT protein applied to leaves, the shoot apex after application was sampled and analyzed by Western blotting in an attempt to detect the FT protein. To ensure long-term application to leaves, concentration studies were conducted for EDTA.
For series [1], the system named is torenia bud cuttings (shoot apex). Nature of the series: Migration of FT protein applied to leaves to the shoot apex, detected by Western blotting. The format is in vivo. The settings on record: Condition 3: FT protein, 20 μM R9 peptide, 0.1× PBS, 1 mM EDTA, 0.005% Silwet L-77, applied to leaves twice; sampled one week after the first application. The method, then: Bud cuttings were prepared from torenia's branches each including the shoot apex. These branches were cut to an even length of approximately 10 cm containing three nodes or so, each of which was put into a 5 ml tube containing 4 ml of 0.1× PBS, followed by covering the mouth of each tube with a parafilm to avoid evaporation of PBS. Four bud cuttings were prepared for each test group, and test solutions (90 μl each) prepared under three conditions (Condition 1: 0.1× PBS, 1 mM EDTA, 0.005% Silwet L-77; Condition 2: 33 μg/ml FT protein, 0.1× PBS, 1 mM EDTA, 0.005% Silwet L-77; Condition 3: FT protein, 20 μM R9 peptide, 0.1× PBS, 1 mM EDTA, 0.005% Silwet L-77) were applied by being spread thinly over leaves at a position which was two nodes (about 3 cm) apart from the shoot apex. After air drying, these samples were maintained at 25° C. in a thermostatic incubator.
After 3 days, the test solutions were applied again, and after one week of the first application, the shoot apexes were sampled. Proteins were extracted from the shoot apex samples by the acetone method. 250 μl of an extraction buffer (10 mM Tris-HCl (pH 8.0), 0.1% CHAPS, 4.5 mM NaCl, 0.1 mM DTT, 0.2 mM EDTA, complete ULTRA1 tablets (Roche Diagnostics)) was added to each shoot apex sample obtained from 4 bud cuttings, followed by sufficient homogenization in a mixer together with zirconia beads of 4 mm diameter. […]
A general note: Immunoblotting shows a protein as a band on a membrane.

Series [2] deals with in vitro shoots of torenia. Nature of the series: Induction of flower buds in in vitro shoots of torenia. It counts as in vivo. The settings on record: torenia in test tubes; 33 μg/ml FT protein, 20 μM R9 peptide, 0.1× PBS, 1 mM EDTA, 0.005% Silwet L-77; applied five times every 2 to 3 days. As to the method:
(§1) In most cases, in vitro shoots of torenia will form no flower buds in test tubes. Likewise, in vitro shoots of petunia will form no flower buds under short-day conditions. In these in vitro shoots, the FT protein was applied to their leaf surface in an attempt to induce flower buds. To the shoot apex and leaf surface of torenia and petunia cultivated in test tubes, a test solution (33 μg/ml FT protein, 20 μM R9 peptide, 0.1× PBS, 1 mM EDTA, 0.005% Silwet L-77) was applied by being spread thinly to ensure a uniform distribution. Application was repeated five times every 2 to 3 days, and culture was also continued thereafter. As a result, flower buds were formed at around 40 days after application and eventually brought into flower in test tubes (FIG. 4).

The test system of series [3] is in vitro shoots of petunia. Put plainly: Induction of flower buds in in vitro shoots of petunia. It counts as in vivo. The conditions noted are these: petunia in test tubes; 33 μg/ml FT protein, 20 μM R9 peptide, 0.1× PBS, 1 mM EDTA, 0.005% Silwet L-77; applied five times every 2 to 3 days. The method, then: as §1
For the next series, the system named is protoplasts of torenia. Nature of the series: GFP uptake into torenia protoplasts in the presence of R9 peptide (fluorescence microscopy). It counts as cell-based. The settings on record: 0.1 mg GFP. As to the method:
To verify that the R9 peptide was also evenly effective for plant cells other than cultured cells, protoplasts of torenia were used and observed for their uptake of green fluorescent protein (GFP) in the presence of the R9 peptide. Torenia leaves (0.5 g) were treated in an enzyme solution (1% Onozuka RS, 0.1% pectolyase Y-23, 0.45 M mannitol) at 30° C. for 2 hours to prepare protoplasts. The protoplasts were washed with 0.45 M mannitol and then divided into 50 μl aliquots, followed by centrifugation to prepare protoplasts. The protoplasts were each suspended in 50 μl of a buffer (0.45 M mannitol, 1× PBS, 0.1 mg GFP, (0, 20, 200 μM) R9 peptide) and observed for intracellular migration of GFP under a fluorescence microscope (FIG. 1).

Where [4] appears, read: combination of 1 to 50 mM EDTA or EGTA and 0.005% to 0.01% Silwet L-77 or Tween 20, 12 hours.

Like-named read-outs stand apart in the source and are kept apart here.

As to `O=C(O)CN(CCN(CC(=O)O)CC(=O)O)CC(=O)O` [EDTA, ethylenediaminetetraacetic acid], the “intracellular GFP fluorescence after trypsin treatment” value (“intracellular GFP fluorescence” for short) in the series on onion epidermal cells (setting [4]) is “granular GFP fluorescence was strongly observed”. Besides, the damage to leaves entry in the series with leaves (1 mM EDTA) was “able to be used without any problems”; in the series on leaves (100 mM EDTA), “cause damage to leaves”.

For `O=C(O)CN(CCOCCOCCN(CC(=O)O)CC(=O)O)CC(=O)O` [EGTA, O,O′-bis(2-aminoethyl)ethylene glycol-N,N,N′,N′-tetraacetic acid], in the series with onion epidermal cells (setting [4]), the “intracellular GFP fluorescence” value is “granular GFP fluorescence was strongly observed”.

On to “FT protein: FLOWERING LOCUS T protein, promoter for flowering in whole plants (florigen)”, for which, in series [1], the “FT protein signal in the shoot apex (Western blotting)” value is on record as “FT protein signals were able to be detected in the shoot apex”. For the same compound, the “time of flower bud formation after application” value in series [2] and in series [3] was “around 40 days” in each case.

Take “R9 peptide: cell penetrating peptide composed of 9 arginine residues (RRRRRRRRR)”: the “number of cells showing GFP uptake with increase in R9 peptide concentration” value in the series on protoplasts of torenia (0, 20, 200 μM R9 peptide) was “cells showing GFP uptake were confirmed to increase in number”. Besides, the “GFP uptake into protoplasts” value in the series with protoplasts of torenia (200 μM R9 peptide, 0.45 M mannitol, 1× PBS) is listed as “good GFP uptake was observed”. For the same compound, in the series with onion epidermal cells (chelator-free and surfactant-free test solution, 12 hours at room temperature), the “intracellular GFP fluorescence” value was “no fluorescence was observed within the cells”.

With “polyoxyethylene sorbitan monolaurate [Tween 20]”, the “intracellular GFP fluorescence” value in the series with onion epidermal cells (setting [4]) was “granular GFP fluorescence was strongly observed”.
